# Source: patent US12576099B2, “Ribose-modified cap analog and use thereof” (Beijing Youcare Kechuang Pharmaceutical Technology Co., Ltd., priority 2024, dated 2026)
# Experiments:
# [1] = target: T1, T7 RNA polymerase (Escherichia phage T7, UniProt P00573); test: Capping rate of mRNA transcription initiated by cap analogs (LC-MS); type: biochemical; settings: for Capping rate: LC-MS of mRNA 5′ fragment
# Protocol: (§1) During the experiment, the volume of materials required for the system was first calculated, and then sample addition was conducted. The system was first added with sterile enzyme-free water, followed by the sequential addition of 10× buffer, NTPs, and cap analogs, mixed well, and gently centrifuged. Nuclease inhibitors, inorganic pyrophosphatase, T7RNA polymerase, and linearized DNA templates were then added thereto. The system was mixed well, gently centrifuged, and incubated at 37° C. After 2 hours of incubation, the system was added with 1 U of DNase I and incubated at 37° C. for another 30 minutes. The mRNA precipitate was then washed with 75% ethanol, and after the ethanol was briefly evaporated to dryness, the mRNA was redissolved in sterile enzyme-free water. • (3) The transcription product was purified, and the in vitro transcription yield of mRNA was recorded. • (4) The obtained mRNA was subjected to an annealing reaction with a probe.
# The annealing reaction was performed in a PCR instrument: 95° C. for 5 minutes; 65° C. for 2 minutes; 55° C. for 2 minutes; 40° C. for 2 minutes; 22° C. for 2 minutes. • (5) Magnetic bead pretreatment and probe binding: 100 μL of magnetic beads was placed on a magnetic frame for pretreatment. The magnetic bead solution was added with 120 μL of sample and incubated at room temperature for 30 minutes with slow mixing. • (6) mRNA splicing and obtaining the mRNA 5′ single-strand sequence bound to the probe
# The mixture was added with 20 μL of RNase H (5 U/μL) and incubated at 37° C. for 3 hours with mixing every half hour. After incubation, the magnetic beads were washed and then added with 100 μL of 75% methanol heated to 80° C. The mixture was heated to 80° C. on a heating plate, held for 3 minutes, then placed on a magnetic frame to aspirate the supernatant, and dried at room temperature for 45 minutes to a volume of 10 μL using a centrifugal evaporator. The sample was then resuspended in 50 μL of 100 μM EDTA/1% MeOH and ready for LC-MS analysis to determine the capping of RNA in the transcription reaction. Since there is a significant difference in molecular weight between capped and uncapped bases, the capping rate of mRNA transcription initiated by different cap analogs can be determined based on the difference in molecular mass.
# [2] = target: T1, T7 RNA polymerase; test: In vitro transcription yield of mRNA using cap analogs; type: biochemical; settings: for Yield per unit template: in vitro transcription, 1 μg DNA template, 37° C., 2 hours
# Protocol: • (1) Capping synthesis using cap analogs
# The plasmid was first linearized with plasmid linearizing enzyme, and then the linearized plasmid was purified. • (2) In vitro transcription and synthesis of mRNA
# as §1
# [3] = target: T2, DCP2 enzyme (Schizosaccharomyces pombe, UniProt O13828); test: Decapping enzyme stability test; type: biochemical; settings: for Decapping rate (%) of DCP2 enzyme: 50 U mRNA decapping enzyme, 37° C., 45 minutes
# T2 construct: purchased New England Biolabs
# T2 sequence (O13828 1-243 limits assumed): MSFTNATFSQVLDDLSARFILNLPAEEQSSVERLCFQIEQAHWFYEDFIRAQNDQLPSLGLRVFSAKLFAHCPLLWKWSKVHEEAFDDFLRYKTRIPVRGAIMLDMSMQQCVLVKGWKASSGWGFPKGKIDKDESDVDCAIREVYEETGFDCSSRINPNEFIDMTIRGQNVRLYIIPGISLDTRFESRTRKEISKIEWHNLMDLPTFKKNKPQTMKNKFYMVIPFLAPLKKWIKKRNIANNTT
# T2 sequence (Q9P805 1-127 partner): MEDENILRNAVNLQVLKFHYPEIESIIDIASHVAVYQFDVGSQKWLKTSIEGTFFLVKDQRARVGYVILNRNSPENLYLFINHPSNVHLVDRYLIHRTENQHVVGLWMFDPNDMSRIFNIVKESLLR
# T2 sequence (Q10108 155-180 partner limits assumed): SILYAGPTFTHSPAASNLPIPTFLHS
# Protocol: […] of RNA purified by polyacrylamide gel electrophoresis (PAGE) was subjected to an enzymatic reaction with 50 U of mRNA decapping enzyme (New England Biolabs) and 1×MDE buffer at 37° C. for 45 minutes. The enzymatic reactants were subjected to PAGE and stained with SYBR Green II (Lonza), followed by observation of the post-electrophoresis gel image on a Typhoon FLA 7000 (GE Healthcare) instrument. The electrophoresis band intensity ratio of RNA capping to RNA decapping was counted using ImageQuant (GE Healthcare) software, and the decapping rate of the decapping enzyme was calculated.
# [4] = test system: HEK293T cells; test: Translation efficiency of different capped luciferase mRNAs; type: cell-based; settings: for Multiple of m6A (relative fluorescence intensity): relative to m6A; for Relative fluorescence intensity: HEK293T, 0.5 μg mRNA per well, 24 hours, proportional to translation efficiency
# Protocol: • (1) HEK293T cells were cultured in DMEM medium containing 10% FBS and penicillin/streptomycin at 37° C. with 5% CO2. • (2)Cells in the culture dish were digested and counted, then spread in a 96-well plate at 10,000 cells per well, and cultured overnight until the cells adhered to the wall. • (3) When the cell density reached approximately 80%, transfection was performed by adding 0.5 μg of mRNA sample and Lipofectamine MessengerMAX Transfection Reagent (Invitrogen) per well according to the manufacturer's instructions. • (4) After the transfected cells were cultured at 37° C. with 5% CO2 for 24 hours, the growth medium was removed from the cells to be tested, and the cells were rinsed with PBS. After centrifugation to remove PBS, 50 μL of 1× lysis buffer was added. The cells and all liquid were transferred to a microcentrifuge tube and centrifuged. • (5) 20 μL of sample was taken and added to 100 μL of Dual-Lumi™ II Luciferase Assay Reagent pre-equilibrated to room temperature, and mixed appropriately. • (6) The mixture was incubated at room temperature (approximately 25° C.) for 5 minutes to stabilize the luminescence signal. Chemiluminescence was detected using a multifunctional microplate reader with a function for detecting chemiluminescence, and the data were recorded.
# The relative fluorescence intensity is proportional to the translation efficiency of mRNA.
# [5] = Characterization of lipid nanoparticles encapsulating Fluc-mRNA prepared from different cap structures; type: physicochemical; settings: for Particle size: LNP (YK-009/DSPC/cholesterol/DMG-PEG2000) with Fluc-mRNA transcribed using the named cap analog; for PDI: LNP with Fluc-mRNA transcribed using the named cap analog; for EE: encapsulation efficiency of LNP with Fluc-mRNA transcribed using the named cap analog
# Protocol: Cationic lipid YK-009 (Beijing Youcare Kechuang Pharmaceutical Technology Co., Ltd.), DSPC (AVT (Shanghai) Pharmaceutical Technology Co., Ltd.), cholesterol (AVT (Shanghai) Pharmaceutical Technology Co., Ltd.), and DMG-PEG2000 were dissolved in ethanol at a molar ratio of 49:10:39.5:1.5, and the mRNA was diluted in 50 mM citrate buffer (pH=4). The ethanol lipid solution was mixed with the Fluc-mRNA aqueous solution prepared from different cap structures at a volume ratio of 1:3 using a microfluidic device at a flow rate of 10 mL/min to prepare LNPs at a weight ratio of total lipid to mRNA of approximately 15:1.
# The resulting liposomes were diluted to 10-fold volume with PBS, and then ultrafiltered with a 300 KDa ultrafiltration tube to remove ethanol. The volume was then fixed to a certain volume with PBS. Finally, the LNPs were filtered through a 0.2 μm sterile filter to obtain an LNP preparation encapsulating Fluc-mRNA using YK-009/DSPC/cholesterol/DMG-PEG2000 (at a molar ratio of 49:10:39.5:1.5).
# The particle size and polydispersity index (PDI) were determined by dynamic light scattering using a Malvern laser particle size analyzer. 10 μL of the liposome solution was taken, diluted to 1 mL with RNase-free deionized water, and added to a sample pool. Each sample was measured in triplicate. The measurement conditions were: a scattering angle of 90° and a temperature of 25° C. The encapsulation efficiency of LNPs was determined using the Quant-iT RiboGreen RNA Quantification Kit (Thermo Fisher Scientific, UK) according to the manufacturer's instructions.
# T1 sequence (P00573 whole entry, the tested form may be a part): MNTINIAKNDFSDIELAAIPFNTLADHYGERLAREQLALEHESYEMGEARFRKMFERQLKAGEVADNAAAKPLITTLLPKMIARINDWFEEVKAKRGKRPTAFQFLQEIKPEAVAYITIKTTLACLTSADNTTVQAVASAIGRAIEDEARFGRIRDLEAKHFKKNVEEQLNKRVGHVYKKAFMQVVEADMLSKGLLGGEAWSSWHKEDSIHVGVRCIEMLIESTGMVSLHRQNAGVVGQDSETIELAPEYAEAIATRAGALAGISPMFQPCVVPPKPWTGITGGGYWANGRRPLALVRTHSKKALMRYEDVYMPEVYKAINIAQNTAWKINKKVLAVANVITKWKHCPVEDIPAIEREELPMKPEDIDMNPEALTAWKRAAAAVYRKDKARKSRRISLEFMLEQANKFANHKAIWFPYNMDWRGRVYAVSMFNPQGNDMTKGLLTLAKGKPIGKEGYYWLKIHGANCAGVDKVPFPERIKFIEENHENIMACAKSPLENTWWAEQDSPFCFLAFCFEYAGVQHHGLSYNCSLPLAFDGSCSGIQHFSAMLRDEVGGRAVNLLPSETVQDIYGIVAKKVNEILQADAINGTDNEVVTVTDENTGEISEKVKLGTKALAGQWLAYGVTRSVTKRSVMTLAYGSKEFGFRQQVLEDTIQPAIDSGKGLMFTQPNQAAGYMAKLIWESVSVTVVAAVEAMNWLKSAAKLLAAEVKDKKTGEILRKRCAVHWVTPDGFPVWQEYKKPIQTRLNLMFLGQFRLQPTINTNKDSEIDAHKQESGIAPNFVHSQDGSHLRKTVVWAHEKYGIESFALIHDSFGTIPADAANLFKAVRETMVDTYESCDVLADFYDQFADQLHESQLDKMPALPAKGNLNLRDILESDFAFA
Compound,Capping rate [1],Increase relative to 5227 (capping rate) [1],Yield per unit template [2],Increase relative to 5227 (in vitro transcription yield) [2],Decapping rate (%) of DCP2 enzyme [3],Decrease relative to N-7113 (decapping rate) [3],Multiple of m6A (relative fluorescence intensity) [4],Particle size [5],PDI [5],EE [5],Relative fluorescence intensity [4]
"COC1[C@H](n2cnc3c(N)ncnc32)O[C@H](COP(=O)(O)OP(=O)(O)OP(=O)(O)OC[C@@]23COC([C@H]([n+]4cn(C)c5c(=O)[nH]c(N)nc54)O2)[C@H]3O)[C@H]1OP(=O)(O)OCC1OC(n2cnc3c(=O)[nH]c(N)nc32)C(O)C1O (stereo partly drawn) [Compound 14, reference compound]",78.3%,8.9%,123.2 µg,−8.2%,26.8%,17.0%,2.9,79.35 nm,0.073,94.2%,–
CO[C@@H]1[C@H](OP(=O)(O)OC[C@H]2O[C@@H](n3cnc4c(=O)[nH]c(N)nc43)[C@H](O)[C@@H]2O)[C@@H](COP(=O)(O)OP(=O)(O)OP(=O)(O)OC[C@H]2OC([n+]3cn(C)c4c(=O)[nH]c(N)nc43)[C@H](NC(C)=O)[C@@H](O)[C@@H]2O)O[C@H]1n1cnc2c(N)ncnc21 (stereo partly drawn) [YK-CAP-102],30.2%,−58.0%,44.1 µg,−67.1%,41.2%,2.6%,0.9,73.22 nm,0.055,95.3%,0.34
CO[C@@H]1[C@H](OP(=O)(O)OC[C@H]2O[C@@H](n3cnc4c(=O)[nH]c(N)nc43)[C@H](O)[C@@H]2O)[C@@H](COP(=O)(O)OP(=O)(O)OP(=O)(O)OC[C@H]2O[C@@H](C[n+]3cn(C)c4c(=O)[nH]c(N)nc43)[C@H](O)[C@@H]2O)O[C@H]1n1cnc2c(N)ncnc21 [YK-CAP-103],71.1%,−1.1%,88.0 µg,−34.4%,36.5%,7.3%,2.0,67.24 nm,0.053,94.7%,0.77
CO[C@@H]1[C@H](OP(=O)(O)OC[C@H]2O[C@@H](n3cnc4c(=O)[nH]c(N)nc43)[C@H](O)[C@@H]2O)[C@@H](COP(=O)(O)OP(=O)(O)OP(=O)(O)OC[C@H]2O[C@@H]([n+]3cn(C)c4c(=O)[nH]c(N)nc43)[C@H](O)[C@]2(F)CN(C)C)O[C@H]1n1cnc2c(N)ncnc21 [YK-CAP-104],77.2%,7.4%,73.2 µg,−45.5%,46.1%,−2.3%,2.1,69.24 nm,0.047,95.7%,0.81
CO[C@@H]1[C@H](OP(=O)(O)OC[C@H]2O[C@@H](n3cnc4c(=O)[nH]c(N)nc43)[C@H](O)[C@@H]2O)[C@@H](COP(=O)(O)OP(=O)(O)OP(=O)(O)OC[C@H]2O[C@@H]([n+]3cn(C)c4c(=O)[nH]c(N)nc43)[C@H](O)[C@]2(C)C#N)O[C@H]1n1cnc2c(N)ncnc21 [YK-CAP-105],69.3%,−3.6%,82.3 µg,−38.7%,33.9%,9.9%,1.9,77.22 nm,0.063,95.7%,0.72
